Laboratory results taken from patent US12414931B1 (priority 2024, dated 2025).

How the values were obtained:
purified recombinant KGA = target: T1, purified recombinant KGA (Homo sapiens, UniProt O94925); experiment: KGA activity inhibition assay, spectrophotometric (NADH production at 340 nm); format: biochemical; details: 37° C., 30 min, 5 mM glutamine
T1 construct: His6 (C); made in house; host or cells: E. coli Rosetta (DE3), pET28a(+)
T1 sequence (O94925 72-598): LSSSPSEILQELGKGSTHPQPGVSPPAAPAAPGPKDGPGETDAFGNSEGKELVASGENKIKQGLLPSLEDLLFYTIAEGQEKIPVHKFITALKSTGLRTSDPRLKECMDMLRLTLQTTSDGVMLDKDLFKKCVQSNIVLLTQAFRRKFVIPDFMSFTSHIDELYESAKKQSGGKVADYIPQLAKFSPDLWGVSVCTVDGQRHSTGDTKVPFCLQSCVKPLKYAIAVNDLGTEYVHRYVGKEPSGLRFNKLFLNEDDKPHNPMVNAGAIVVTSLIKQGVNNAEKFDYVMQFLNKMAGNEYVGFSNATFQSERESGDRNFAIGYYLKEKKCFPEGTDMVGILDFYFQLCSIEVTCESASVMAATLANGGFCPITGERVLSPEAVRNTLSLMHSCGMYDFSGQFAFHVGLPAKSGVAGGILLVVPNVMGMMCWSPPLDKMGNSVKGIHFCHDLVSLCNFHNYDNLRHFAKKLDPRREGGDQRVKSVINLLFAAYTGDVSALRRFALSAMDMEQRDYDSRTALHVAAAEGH

MDA-MB-231 cells [1] = test system: MDA-MB-231 cells
KGA = target: T2, KGA (Homo sapiens, UniProt O94925); format: biochemical
T2 construct: His6 (C); made in house; host or cells: E. coli Rosetta (DE3), pET28a(+)
T2 sequence (O94925 72-598): T1 sequence (O94925 72-598)

MDA-MB-231 cells [2] = test system: MDA-MB-231 cells; remark: listed apart in the source
MCF12A cells = format: cell-based, human; details: read-out: IC50 cell viability, normal breast cells
purified KGA = purified KGA (Homo sapiens, UniProt O94925); details: read-out: apparent binding affinity (Kd)

## [N-]=[N+]=CC(=O)CC[C@H](N)C(=O)O [DON, 6-diazo-5-oxo-L-norleucine]
Purified recombinant KGA
  half-maximal inhibitory concentration (IC50) against KGA: submillimolar range

## NC(CCP(=O)(O)O)C(=O)O (stereo not shown) [AP4, 2-amino-4-phosphonobutyric acid]
Purified recombinant KGA
  half-maximal inhibitory concentration (IC50) against KGA: submillimolar range

## N[C@H](CC[As](=O)(O)O)C(=O)O [AST-OH, hydroxyarsinothricin]
Purified recombinant KGA
  half-maximal inhibitory concentration (IC50) against KGA: submillimolar range

## NC(CC[As](O)O)C(=O)O (stereo not shown) [R-AST-OH, trivalent hydroxyarsinothricin]
HCC1569 cells; 10 µM
  cells that lost viability: ~47%
HCC1569 cells; read-out: IC50 cell viability
  IC50: 3 µM
MDA-MB-231 cells [1]
  cell permeability (uptake of arsenicals): lowest permeability
KGA; luminescent assay, 15 min preincubation with KGA, read-out: IC50 against KGA
  IC50: 2 µM
KGA; ratio of IC50 values
  fold more effective inhibitor of KGA than Rox(III): 4.5 fold
  fold more effective inhibitor of KGA than pentavalent AST-OH: 125 fold
MDA-MB-231 cells [2]; 10 µM
  cells that lost viability: approximately 64%
MDA-MB-231 cells [2]; read-out: IC50 cell viability
  IC50: 5 µM
MCF12A cells
  IC50: 75 µM
Purified KGA
  Kd: 40 µM
